We go through five molecules from ChEMBL document CHEMBL1275241, “Novel variants of the qnrB gene, qnrB22 and qnrB23, in Citrobacter werkmanii and Citrobacter freundii” (2010).

≈ marks a conversion by molar mass, not a printed value.

Holding throughout (type): functional
For test [1], the system named is Citrobacter werkmanii. Put plainly: Antimicrobial activity against Citrobacter werkmanii PS012 expressing PMQR determinant qnrB22 gene by Etest.
The test system of test [2] is Citrobacter freundii. Put plainly: Antimicrobial activity against Citrobacter freundii S008 expressing PMQR determinant qnrB23 gene by Etest.
Test [3] has as its system Escherichia coli. Put plainly: Antimicrobial activity against […] Escherichia coli DH5alpha TrfS008 harboring PMQR determinant qnrB23 by Etest.
Test [4] has as its system Escherichia coli. Put plainly: Antimicrobial activity against azide-resistant Escherichia coli J53 TrcS008 harboring PMQR determinant qnrB23 by Etest.
The test system of test [5] is Escherichia coli. Put plainly: Antimicrobial activity against azide-resistant Escherichia coli J53 by Etest.
In test [6] the test system is Escherichia coli. Put plainly: Antimicrobial activity against […] Escherichia coli DH5alpha TrfPS012 harboring PMQR determinant qnrB22 by Etest.
Test [7] concerns Escherichia coli. Put plainly: Antimicrobial activity against […] Escherichia coli DH5alpha by Etest.
The test system of test [8] is Escherichia coli. Put plainly: Antimicrobial activity against azide-resistant Escherichia coli J53 TrcPS012 harboring PMQR determinant qnrB22 by Etest.

By MIC is commonly meant the lowest concentration that inhibits growth of the organism. A high value points to weaker potency. For the molecule `O=C(O)c1cn(C2CC2)c2cc(N3CCNCC3)c(F)cc2c1=O` [CIPROFLOXACIN], the MIC in test [1] worked out at 0.25 µg/mL (≈ 0.754 µM); in test [2], 2 µg/mL (≈ 6.04 µM); in test [3], 0.064 µg/mL (≈ 0.193 µM).

Turning to `CC1COc2c(N3CCN(C)CC3)c(F)cc3c(=O)c(C(=O)O)cn1c23` (stereo not drawn) [OFLOXACIN], the minimal inhibitory concentration (MIC) worked out at 1 µg/mL (≈ 2.77 µM) in test [1]; 8 µg/mL (≈ 22.1 µM) in test [2]; 8 µg/mL (≈ 22.1 µM) in test [4]; 0.064 µg/mL (≈ 0.177 µM) in test [5]; 0.064 µg/mL (≈ 0.177 µM) in test [6]; 0.25 µg/mL (≈ 0.692 µM) in test [3]. For the same molecule, the minimal inhibitory concentration (MIC) in test [7] stood at 0.023 µg/mL (≈ 0.0636 µM).

For `C[C@H]1COc2c(N3CCN(C)CC3)c(F)cc3c(=O)c(C(=O)O)cn1c23.C[C@H]1COc2c(N3CCN(C)CC3)c(F)cc3c(=O)c(C(=O)O)cn1c23.O` [LEVOFLOXACIN], the minimum inhibitory concentration (MIC) in test [1] came to 0.5 µg/mL; in test [2] it was 3 µg/mL; in test [4], 3 µg/mL; in test [5], 0.023 µg/mL; in test [6] it was 0.004 µg/mL; in test [3], 0.094 µg/mL. In test [7], this molecule registered a minimal inhibitory concentration (MIC) of less than 0.002 µg/mL.

Take `CCn1cc(C(=O)O)c(=O)c2cc(F)c(N3CCNCC3)cc21` [NORFLOXACIN]: the MIC was 0.5 µg/mL (≈ 1.57 µM) in test [1]; 8 µg/mL (≈ 25.1 µM) in test [2]; 0.25 µg/mL (≈ 0.783 µM) in test [8]; 8 µg/mL (≈ 25.1 µM) in test [4]; 0.064 µg/mL (≈ 0.2 µM) in test [5]; 0.064 µg/mL (≈ 0.2 µM) in test [6]. In addition, the MIC amounted to 0.25 µg/mL (≈ 0.783 µM) in test [3] and 0.032 µg/mL (≈ 0.1 µM) in test [7].

For the molecule `CCn1cc(C(=O)O)c(=O)c2ccc(C)nc21` [NALIDIXIC ACID], the MIC is 32 µg/mL (≈ 138 µM) in test [1]; greater than 256 µg/mL in test [2]; 16 µg/mL (≈ 68.9 µM) in test [8]; greater than 256 µg/mL in test [4]; 3 µg/mL (≈ 12.9 µM) in test [5]; 4 µg/mL (≈ 17.2 µM) in test [6]. Also, the MIC in test [3] was 16 µg/mL (≈ 68.9 µM); in test [7] it was 2 µg/mL (≈ 8.61 µM).
